# Patent US20080249140A1, “Quaternary 3 -Amido, N-Methylpyridinium Salts as Anti-Inflammatory Agents” (priority 2005, published 2008)
# How the values were obtained:
# rats = conditions: comparable to nicotinamide, lower than diethylamine; cited from earlier work
# [1] = tested on: reddening of the skin upon UV-irradiation; assay: UV-erythema test (anti-inflammation) with a trial person; assay type: in vivo; conditions: for Readings of reddening intensities: 15±1 mg gel applied to irradiated skin, lower arm, UV C 150 seconds
# Description: The NMN diclofenac salt prepared according to Example 1 was tested in experiments with a trial person in an […] according to Hiramatsu Y et al., Arzneimittel-forschung 1990, vol. 40 (11), 1117, and Wilhelm G, Schweiz. Med. Wochenschrift 1949, vol. 79, 577. The criterion of efficacy was the inhibition of the reddening of the skin upon UV-irradiation during the time of observation.
# UV-Erythema Test (Anti-Inflammation):
# • Lamp used: UV C lamp (Sylvania, Hg low pressure), 9 W • Irradiated area: circular, […] • Distance from lamp: 10 cm • Time of irradiation: 150 seconds • Site: lower arm, shaven, proximal side • Amount of gel applied to irradiated surface: 15±1 mg 3.5 to 5 minutes after end of irradiation
# Readings of reddening intensities at given time intervals (arbitrary units): […]
SMILES,Toxicity (rats),Readings of reddening intensities ([1]; 40 minutes after start of irradiation) [arbitrary units],Readings of reddening intensities ([1]; 60 minutes after start of irradiation) [arbitrary units],Readings of reddening intensities ([1]; 90 minutes after start of irradiation) [arbitrary units],Readings of reddening intensities ([1]; 120 minutes after start of irradiation) [arbitrary units],Readings of reddening intensities ([1]; 180 minutes after start of irradiation) [arbitrary units],Activity in UV-erythema test compared with Voltaren-Emulgel ([1]; comparison with Voltaren-Emulgel (diethylammonium salt of diclofenac))
"C[n+]1cccc(C(N)=O)c1 [NMN, N(1)-methylnicotinamide]",low toxicity,,,,,,
"C[n+]1cccc(C(N)=O)c1.O=C([O-])Cc1ccccc1Nc1c(Cl)cccc1Cl [NMN-Diclofenac, NMN-Salt of Diclofenac]",,1,0.5,0,0.5,0.5,superior activity
